Laboratory results published in ChEMBL document CHEMBL3832081, “DailyMed|setid=caaf1b7f-eaab-4fb6-a955-b7d881038fef | METRONIDAZOLE - metronidazole gel|Sandoz Inc”.

Assay: Evaluation of pharmacokinetic parameters for metronidazole following topical administration of metronidazole gel USP, 1% to the face of 13 patients with moderate to severe rosacea.
Type: ADME, organism-based
Set-up: dose 1 g, route topical
Settings: human, in vivo, topical or ocular, dosed compound id 31, dosed compound name METRONIDAZOLE, gender male and female, regimen Once daily, study dosing duration 7 days, tissue Plasma

- Cmax (1 g): 32 ng/mL
- AUC (1 g, read-out: AUC(0-24)): 595 ng·h/mL
- Tmax (dose 1 g, route topical): 6 to 10 h
Structure (SMILES): Cc1ncc([N+](=O)[O-])n1CCO [METRONIDAZOLE]
